Laboratory results as given in patent US9814752B2, “Agonists of guanylate cyclase useful for the treatment of hypercholesterolemia, atherosclerosis, coronary heart disease, gallstone, obesity and other cardiovascular diseases” (SYNERGY PHARMACEUTICALS, INC., priority 2007, dated 2017).
Positions of bridges follow the written chain, without caps; N, C: chain ends. Residues, ends and D or L forms follow the SMILES beside them.

How the values were obtained:
GC-C receptors = target: T1, GC-C receptors (Homo sapiens, UniProt P25092); test: Cyclic GMP stimulation assay in CaCo-2 monolayers (cGMP ELISA); assay type: cell-based; settings: for effect of PDE inhibitor on stimulation of cGMP production by SP-304: PDE inhibitor in combination with SP-304, 30 minutes
T1 construct: host or cells: CaCo-2 human colon carcinoma cells, differentiated monolayers grown for 16 days
Description: (§1) CaCo-2, human colon carcinoma cells, were obtained from American Type Culture Collection (ATCC) and cultured in DMEM medium containing 10% fetal bovine serum, 1% penicillin-streptomycin, 2 mM L-glutamine, 1% non-essential-amino acids. Cells were fed fresh medium every third day and grown for 16-21 days to form completely differentiated monolayer. Fully differentiated CaCo-2 cells are known to express high density of GC-C receptors.
Biological activity of the GCRA peptides was assayed as previously reported (5). Briefly, 16 days grown monolayers of CaCo-2 cells in 24-well plates were washed twice with 250 μl of DMEM containing 50 mM HEPES (pH 7.4), pre-incubated at 37° C. for 10 min with 250 μl of DMEM containing 50 mM HEPES (pH 7.4) and 1 mM isobutylmethylxanthine (IBMX), followed by incubation with GCRA peptides (0.1 nM to 10 μM) for 30 min. The medium was aspirated, and the reaction was terminated by the addition of 3% perchloric acid. Following centrifugation, and neutralization with 0.1 N NaOH, the supernatant was used directly for measurements of cGMP using an ELISA kit (Caymen Chemical, Ann Arbor, Mich.)
Monolayers were treated […] of serum free DMEM for 30 minutes with either SP-304 alone or in combination with phosphodiesterase inhibitors such as, 3-isobutyl-1-methylxanthine (IBMX), sulindac sulfone (SS) and zaprinast (ZAP). After the incubation, monolayer were lysed with 250 μL of 3% perchloric acid. The lysate was neutralized with 0.1 N NaOH and used for ELISA to determine the concentration of cGMP. The assay procedure was essentially the same as described (5). […] Since CaCo-2 cells overexpress phosphodiesterases (PDE), GC-C agonists are used in combination with PDE inhibitors to measure the actual stimulatory effect of GC-C agonists.

CaCo-2 cells = test: ^3H-taurocholate (bile acid) absorption by CaCo-2 monolayer; assay type: cell-based, human; settings: for absorption of ^3H-taurocholate (kinetics, FIG. 4): 16-day CaCo-2 monolayers, incubation up to 60 minutes, average of three determinations; for absorption of ^3H-taurocholate (kinetics, FIG. 4) / absorption of ^3H-taurocholate (FIG. 5): 30 min pre-incubation; for absorption of ^3H-taurocholate (FIG. 5): 20-day CaCo-2 cells, 60 minutes with 1 uCi ^3H-taurocholate, quadruplets
Description: as §1
Phosphatidyl choline was dissolved in ethanol to make 50 mM stock solution. Calculated volume of the stock solution of phosphatidyl choline was mixed with 3H-taurocholate in a plastic tube and dried under argon gas at 80° C. The dried material was dissolved in transport buffer to get the final concentration of phosphatidyl choline (0.5 mM) and of 3H-taurocholate 10 μCi/mL.
CaCo-2 cells were grown in 24-well plates for 16 days to allow complete monolayer formation and cell differentiation. Completely differentiated monolayers were then pre-incubated with 250 μL of the transport buffer (HEPES 25 mM, NaCl 120 mM, KCl 5.4 mM, CaCl2 1.8 mM and MgSO4, pH 7.5) containing either SP-304 alone or in combination with PDE inhibitors such as IBMX, SS and ZAP. The monolayers were pre-incubated with transport buffer containing either of the following: vehicle (control), 1 mM 8-bromo-cGMP, 500 μM SS, 500 μM ZAP, 1 μM SP-304, 0.1 μM SP-304+500 μM SS and 1 μM SP-304+500 μM ZAP. After the indicated pre-incubation time, 50 μL, of ^3H-taurocholate (1 μCi) cocktail was added and cells were incubated for an additional 60 minutes, washed three times with ice cold PBS. Cells were lysed with 0.5 N NaOH for 4 hours and radioactivity in the lysate was counted in a scintillation counter.
16-day grown monolayers of CaCo-2 cells in 24-well plates were pre-incubated with transport buffer containing the compounds as indicated in the figure for 30 minutes. After the pre-incubation, 1 μCi of ^3H-taurocholate cocktail was added in each well and cells were further incubated for 60 minutes. Cells were washed three times with ice cold PBS and lysed with 0.5 N NaOH and lysates were counted for radioactivity in a scintillation counter. Results are expressed as an average of three determinations. Results on the x-axis were plotted in logarithmic scale.
After the pre-incubation, 1 μCi of ^3H-taurocholate cocktail was added in each well and cells were further incubated for 60 minutes. Cells were washed three times with ice cold PBS and lysed with 0.5 N NaOH and lysates were counted for radioactivity in a scintillation counter. This experiment was run in quadruplets and results are expressed as mean±SD.
The procedure used in this experiment was essentially the same except that a lower concentration of ZAP (250 μM) in combination experiments with SP-304.

T1 sequence (P25092 24-1073): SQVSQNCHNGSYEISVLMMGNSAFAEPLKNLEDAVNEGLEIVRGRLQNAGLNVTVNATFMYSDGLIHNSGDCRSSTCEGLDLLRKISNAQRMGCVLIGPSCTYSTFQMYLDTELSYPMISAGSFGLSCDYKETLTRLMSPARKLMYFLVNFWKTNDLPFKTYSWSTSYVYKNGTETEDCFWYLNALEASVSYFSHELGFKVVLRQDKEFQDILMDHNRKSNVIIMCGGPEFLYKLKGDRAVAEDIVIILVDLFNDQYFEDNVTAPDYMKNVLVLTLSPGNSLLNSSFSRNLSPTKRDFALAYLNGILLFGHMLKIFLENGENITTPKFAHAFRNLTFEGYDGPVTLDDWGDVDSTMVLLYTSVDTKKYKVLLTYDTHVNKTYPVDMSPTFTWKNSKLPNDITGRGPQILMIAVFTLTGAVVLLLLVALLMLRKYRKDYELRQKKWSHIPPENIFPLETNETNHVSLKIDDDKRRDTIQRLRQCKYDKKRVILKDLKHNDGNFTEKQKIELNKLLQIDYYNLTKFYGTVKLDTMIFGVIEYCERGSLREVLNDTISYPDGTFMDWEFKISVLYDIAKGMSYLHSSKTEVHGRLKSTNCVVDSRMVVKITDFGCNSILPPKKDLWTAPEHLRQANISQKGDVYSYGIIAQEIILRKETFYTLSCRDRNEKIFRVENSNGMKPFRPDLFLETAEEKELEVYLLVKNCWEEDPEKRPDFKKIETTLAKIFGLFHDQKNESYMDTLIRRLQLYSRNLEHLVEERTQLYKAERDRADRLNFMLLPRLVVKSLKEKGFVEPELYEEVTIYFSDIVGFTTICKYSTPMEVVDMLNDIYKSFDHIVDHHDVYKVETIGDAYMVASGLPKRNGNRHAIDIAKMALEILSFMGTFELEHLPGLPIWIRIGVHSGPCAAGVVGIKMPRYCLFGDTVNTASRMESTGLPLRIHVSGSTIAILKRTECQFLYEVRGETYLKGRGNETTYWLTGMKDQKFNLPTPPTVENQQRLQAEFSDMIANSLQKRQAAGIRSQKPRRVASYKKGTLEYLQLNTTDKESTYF

CCCOc1ccccc1-c1nc2nn[nH]c2c(=O)[nH]1 [ZAP, zaprinast] was tested, and the “effect of PDE inhibitor on stimulation of cGMP production by SP-304” value (“effect of PDE inhibitor” for short) (GC-C receptors) was “synergistic effects” and the “cGMP production among the PDE inhibitors combined with SP-304” value (GC-C receptors; comparison of IBMX, SS and ZAP) was “maximum production of cGMP”.

CC1=C(CC(=O)O)c2cc(F)ccc2/C1=C\c1ccc(S(C)(=O)=O)cc1 [SS, sulindac sulfone] was tested, and the “effect of PDE inhibitor” value (GC-C receptors) was “synergistic effects”.

Nc1nc2c(nc(Br)n2[C@@H]2O[C@@H]3COP(=O)(O)O[C@H]3[C@H]2O)c(=O)[nH]1 [8-Br-cGMP, 8-bromo-cGMP] was tested, and the “absorption of ^3H-taurocholate (kinetics, FIG. 4)” value (CaCo-2 cells) was “inhibited” and the “absorption of ^3H-taurocholate (FIG. 5)” value (CaCo-2 cells) was “inhibited”.

For CC(C)Cn1c(=O)n(C)c(=O)c2[nH]cnc21 [IBMX, 3-isobutyl-1-methylxanthine], the “effect of PDE inhibitor” value (GC-C receptors) was “synergistic effects”.

With CC(C)C[C@H](NC(=O)[C@@H]1CSSC[C@@H]2NC(=O)[C@H](CC(C)C)NC(=O)[C@H](CCC(=O)O)NC(=O)[C@@H](NC(=O)[C@H](CCC(=O)O)NC(=O)[C@H](CC(=O)O)NC(=O)[C@@H](N)CC(N)=O)CSSC[C@H](NC(=O)[C@H](C)NC(=O)[C@H](C(C)C)NC(=O)[C@H](CC(N)=O)NC(=O)[C@H](C(C)C)NC2=O)C(=O)N[C@@H]([C@@H](C)O)C(=O)NCC(=O)N1)C(=O)O [SP-304, Asn^1-Asp^2-Glu^3-Cys^4-Glu^5-Leu^6-Cys^7-Val^8-Asn^9-Val^10-Ala^11-Cys^12-Thr^13-Gly^14-Cys^15-Leu^16] (H-NDECELCVNVACTGCL-OH; disulfide 4-12, 7-15; N-terminus assumed) the “cGMP production by CaCo-2 cells in response to stimulation” value (GC-C receptors; serum free DMEM, 30 minutes, cGMP by ELISA) was “produced cGMP in response to stimulation”, the “absorption of ^3H-taurocholate (kinetics, FIG. 4)” value (CaCo-2 cells) was “inhibited” and the “absorption of ^3H-taurocholate (FIG. 5)” value (CaCo-2 cells) was “inhibited”. The “inhibition in absorption of ^3H-taurocholate (FIG. 6), SP-304 alone” value (CaCo-2 cells; SP-304 0.1 uM alone) was “did not produce much inhibition” and the “inhibition of ^3H-taurocholate absorption (FIG. 6), SP-304 in combination with ZAP” value (CaCo-2 cells; SP-304 0.1 uM in combination with ZAP 250 uM, compared with SP-304 alone) was “greater effect on inhibition”.
